The conditions of this data set: nicotine used in the experiments. As to the method: Mixtures were prepared of 10%, 20% and 50% by weight of nicotine on Florite® PS-200 grade and on Florite® R-grade.

Turning to `CN1CCCC1c1cccnc1` (stereo not shown) [nicotine], the “starting level of impurity myosmine” value was found to be 0.14%.

(Values after US12708136B2, “Supported nicotine composition” (priority 2021, dated 2026).)
